The IC50 is the concentration at which inhibition is half-maximal. A higher IC50 goes with weaker potency in that assay.

Experimental findings from patent publication EP1242382B1, “TRICYCLIC PROTEIN KINASE INHIBITORS” (Wyeth, priority 1999, dated 2001) are described below.

Holding throughout (format): biochemical
Assay [1] has as its target Mitogen Activated Protein Kinase (Mek-Erk) (Homo sapiens, UniProt P28482+Q02750). Kind of assay: Mitogen Activated Protein Kinase (MAPK) two component coupled test procedure.
Procedure: To evaluate inhibitors of the MAP (mitogen activated protein) kinase a two component coupled standard pharmacological test procedure, which measures phosphorylation of a serine/threonine residue in an appropriate sequence in the substrate in the presence and absence of a putative inhibitor, is used. Recombinant human MEK 1 (MAPKK) is first used to activate recombinant human ERK2 (MAPK) and the activated MAPK (ERK) is incubated with substrate (myelin basic protein peptide (MBPP) or Myc peptide) in the presence of ATP, Mg^+2 and radiolabeled ^33P ATP. The phosphorylated peptide is captured on a P 81 phosphocellulose filter (paper filter or embedded in microtiter plate) washed and counted by scintillation methods.
The peptide substrates used in the assay are MBPP, peptide substrate ([sequence]), or synthetic Myc substrate, ([sequence]•5 TFA). The recombinant enzymes used are prepared as GST fusion proteins of human ERK 2 and human MEK 1. […]
The reaction is run as follows in 50 mM Tris kinase buffer, pH 7.4 in a reaction volume of 50 ul. […] The filters are briefly air dried before addition of scintillant and samples are counted in the appropriate scintillation counter set up for reading ^33P isotope.
The raw data is captured as cpm. […] Mean cpm data is tabulated by group and % inhibition by a test compound is calculated as (corrected cpm control-corrected. cpm sample/control) X 100 = % inhibition).
Assay [2] concerns the target T1, Kinase insert Domain containing Receptor (KDR; the catalytic domain of the VEGF receptor) (Homo sapiens, UniProt P35968).
T1 construct: KDR; the catalytic domain of the VEGF receptor
Kind of assay: Inhibition of Kinase insert Domain containing Receptor (KDR). The conditions noted are these: read-out: KDR %Inh (10 µM). As to the method: KDR protein is mixed, in the presence or absence of a inhibitor compound, with a substrate peptide to be phosphorylated (a copolymer of glutamic acid and tyrosine, E:Y :: 4:1) and other cofactors such as Mg^++ and sodium vanadate (a protein tyrosine phosphatase inhibitor) in an appropriate buffer to maintain pH (7.2). ATP and a radioactive tracer (either P^32- or P^33-labeled ATP) is then added to initiate phosphorylation. After incubation, the radioactive phosphate associated with the acid-insoluble fraction of the test procedure mixture is then quantified as reflection of substrate phosphorylation.

The target of assay [3] is T2, p60^c-src (Src) (Homo sapiens, UniProt P12931).
T2 construct: purchased Upstate Biotechnologies
As to the kind of experiment: Src kinase test procedure (Elisa format). The following applies: dose 10 µM; read-out: Src %Inh. As to the method:
Inhibitors of p60^c-src (partially purified preparation purchased from Upstate Biotechnologies) tyrosine kinase activity are analyzed in an Elisa format. […] HRP-conjugated anti-phosphotyrosine is used to detect phosphorylated peptide via a color reaction. Conditions recommended by the manufacturer are employed.
Reaction conditions: Five microliter aliquots of each compound prepared fresh at the time of the assay are added as a solution in 10mM HEPES pH 7.5, 10% DMSO to the reaction well. Thirty-five microliters of reaction mix containing Src, buffer and peptide/bovine serum albumin mix are added to the compound wells and incubated at 30°C for 10 minutes (reaction buffer: 50mM TrisHCl pH 7.5, 10mM MgCl2, 0.1mM EGTA, 0.5mM Na3VO4). The reaction is started by addition of 10 microliters of ATP, incubated at 30°C for 1 hour, and stopped by addition of 20 microliters of 0.5M EDTA. The reaction mixture with the phosphorylated peptide is then transferred to a streptavidin-coated microtiter plate (provided in the kit) and allowed to bind for 20 minutes. Unbound peptide and reaction mixture is decanted and the plate is washed with PBS six times. Horseradish peroxidase-conjugated phosphotyrosine antibody supplied in the kit is incubated with the plate for one hour, then decanted. The plate is again washed with PBS six times.

Sequence of Mitogen Activated Protein Kinase (Mek-Erk) (Q02750 whole entry, the tested form may be a part): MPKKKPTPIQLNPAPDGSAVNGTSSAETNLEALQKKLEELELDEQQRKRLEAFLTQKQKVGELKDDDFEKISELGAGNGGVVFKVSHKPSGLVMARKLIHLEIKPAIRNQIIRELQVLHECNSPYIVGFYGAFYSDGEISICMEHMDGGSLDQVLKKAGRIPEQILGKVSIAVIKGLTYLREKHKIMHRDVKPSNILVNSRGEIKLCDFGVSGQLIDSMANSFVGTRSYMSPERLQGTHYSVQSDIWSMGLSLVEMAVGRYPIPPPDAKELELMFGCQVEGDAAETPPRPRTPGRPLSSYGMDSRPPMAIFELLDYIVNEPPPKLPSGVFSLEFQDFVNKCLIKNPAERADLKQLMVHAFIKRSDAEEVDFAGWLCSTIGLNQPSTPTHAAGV
Sequence of Mitogen Activated Protein Kinase (Mek-Erk) (P28482 2-360): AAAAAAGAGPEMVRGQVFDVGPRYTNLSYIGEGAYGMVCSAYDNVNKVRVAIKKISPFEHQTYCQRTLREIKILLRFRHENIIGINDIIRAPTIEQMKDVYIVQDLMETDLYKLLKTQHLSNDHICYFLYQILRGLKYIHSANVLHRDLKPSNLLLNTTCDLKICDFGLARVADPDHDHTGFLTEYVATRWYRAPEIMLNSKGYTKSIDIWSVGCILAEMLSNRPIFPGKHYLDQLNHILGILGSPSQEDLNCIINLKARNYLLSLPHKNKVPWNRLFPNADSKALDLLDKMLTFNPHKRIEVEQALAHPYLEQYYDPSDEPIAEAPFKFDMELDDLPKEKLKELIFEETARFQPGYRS
T1 sequence (P35968 834-1162 limits assumed): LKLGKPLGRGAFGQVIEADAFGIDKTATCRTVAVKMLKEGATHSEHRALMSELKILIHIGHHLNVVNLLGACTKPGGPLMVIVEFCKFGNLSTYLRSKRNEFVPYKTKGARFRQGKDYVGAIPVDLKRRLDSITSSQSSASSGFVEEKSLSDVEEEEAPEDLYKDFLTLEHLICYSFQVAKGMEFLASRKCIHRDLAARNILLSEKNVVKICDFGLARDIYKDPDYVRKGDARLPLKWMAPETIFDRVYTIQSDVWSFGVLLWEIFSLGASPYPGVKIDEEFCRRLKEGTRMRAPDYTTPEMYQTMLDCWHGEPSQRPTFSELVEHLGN
T2 sequence (P12931 whole entry): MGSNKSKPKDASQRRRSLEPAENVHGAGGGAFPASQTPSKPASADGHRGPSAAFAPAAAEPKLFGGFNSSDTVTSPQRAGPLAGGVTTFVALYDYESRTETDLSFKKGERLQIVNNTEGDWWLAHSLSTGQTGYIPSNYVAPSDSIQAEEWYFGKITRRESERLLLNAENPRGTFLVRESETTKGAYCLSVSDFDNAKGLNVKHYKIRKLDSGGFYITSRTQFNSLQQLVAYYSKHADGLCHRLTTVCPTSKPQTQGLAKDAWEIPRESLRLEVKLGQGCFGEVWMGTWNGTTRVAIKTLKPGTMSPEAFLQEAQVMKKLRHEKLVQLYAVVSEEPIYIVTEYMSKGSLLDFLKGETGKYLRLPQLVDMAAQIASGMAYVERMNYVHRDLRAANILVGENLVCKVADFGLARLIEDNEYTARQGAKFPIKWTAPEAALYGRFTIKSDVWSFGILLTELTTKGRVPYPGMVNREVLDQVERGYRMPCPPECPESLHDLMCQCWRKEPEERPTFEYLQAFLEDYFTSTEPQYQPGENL

With `N#Cc1cnc2cc3c(cc2c1Nc1ccc(Oc2ccccc2)cc1)ncn3CCN1CCOCC1` [Example 58, 3-[2-(4-Morpholinyl)ethyl]-8-(4-phenoxyanilino)-3H-imidazo[4,5-g]quinoline-7-carbonitrile], in assay [1], the IC50 was > 10 µM.
`Cc1ccc(Nc2c(C#N)cnc3c2oc2ccccc23)cc1O` [Example 87, 4-(3-Hydroxy-4-methylphenylamino)benzo[4,5]furo[3,2-b]pyridine-3-carbonitrile]: the values for the inhibition at 10 µM in assay [2] and in assay [3] were 32% and 0%, respectively.
For the compound `N#Cc1cnc2c(oc3ccccc32)c1Nc1ccc(Oc2ccccc2)cc1` [Example 88, 4-(4-Phenoxyphenylamino)benzo[4,5]furo[3,2-b]pyridine-3-carbonitrile], the IC50 in assay [1] was > 100 µM.
